According to patent US8410068B2, “Compounds for the treatment or alleviation of edema, and methods for their use” (Index Pharmaceuticals AB, priority 2007, dated 2013):

Experiments:
[1] = system: arachidonic acid (AA) induced ear edema; test: Arachidonic acid (AA) induced ear edema model; assay type: in vivo, mice; details: 10 μg one single s.c. injection 20 minutes before AA; compared to PBS control
Procedure: A stock solution of AA was prepared by diluting AA in acetone, 4 mg/10 μL, and was stored frozen at −80° C. A final working solution, 1 mg/10 μL, in acetone was prepared. The working solution was used within one hour after preparation.
Both outer ears of a non-anesthetized mouse were washed with mild soap (Palmolive, Sweden) using a soft tooth brush, the ears were dried with tissue and cleaned with tissue soaked with acetone. After allowing the acetone to evaporate, TPA or AA was applied on both sides, 10 μL, on each side of the ear with care to cover the whole ear. The mouse was held for 20 seconds to allow the solvent to evaporate.
The ears of non-anesthetized mice were measured at different time points for up to 96 hours after the TPA was administered, or up to 24 hours for the AA model. The first measurements were done before the edema was induced. The thickness was recorded with a spring loaded dial micrometer (Limit, Thickness Gauge, accuracy 0.01 mm, contact area Ø6 mm, Luna AB, Allingsås, Sweden) in triplicates at all time points per ear.
The average thickness for both ears on a mouse was calculated and compared to the average thickness of the ears at the starting time point. The value obtained at the start of the experiment was set as 100%. The peak values and area under the curve (AUC) values for the treatment groups were calculated and compared to the inflamed control group, treated with PBS (set as 100%), and expressed as a percentage change (Δ% AUC).
Area under the curve (AUC) with base line set as 100 was calculated using GraphPad Prism version 4.03 for Windows (GraphPad Software, San Diego Calif. USA, www.graphpad.com).
In addition to the experiments done with the control compounds and IDX0001, all other test compounds were investigated in a similar fashion in the TPA and/or AA ear edema models, where the test compounds were given subcutaneously (10 μg) 20 minutes before induction of edema. The results were expressed as reduction of peak value and reduction of area under curve (AUC) in Table 5.

[2] = system: OVA induced airway inflammation; test: Ovalbumin (OVA) induced allergic airway inflammation, BAL fluid cell counts; assay type: in vivo, Balb/c mice
Procedure: Mice were sensitized intraperitoneally with 200 μL OVA/aluminium hydroxide gel (1:3) on day 0 and 12 (see FIG. 6). OVA (chicken egg albumin grade V, Sigma, St. Louis, Mo.) was dissolved in saline and mixed with aluminium hydroxide gel to a concentration of 50 μg/mL by rotation at 4° C. for 3 h. On days 23, 26, 30 and 33 (see FIG. 6), mice were challenged in the lungs by inhalation of aerosolized OVA for 30 minutes using a Batelle exposure chamber. Aerosols were generated by a compressed-air nebulizer (Collison 6-jet) at airflow 7.4 L/min using a nebulizer concentration of 10 mg/mL OVA dissolved in PBS (Sigma, St Louis, Mo., USA). The control group with non-sensitized animals received no other treatment than aerosolized OVA at days 23, 26, 30 and 33.
In this OVA model (FIG. 6), a total of 4 oligonucleotides were tested, IDX9025, IDX9038, IDX9053 (Table 1, SEQ ID NO 2-4) and IDX0150 (Table 3, SEQ ID NO 11). The oligonucleotides were synthesized by biomers.net GmbH, Ulm, Germany and stored frozen at −20° C. The oligonucleotides were diluted with PBS to the working concentration (1,247 μg/μL) and kept at −20° C. until the first day of instillation, thereafter they were placed at 4° C.
In a first experiment, both prophylactic and therapeutic protocols were tested (see FIG. 6). The drug treatment consisted of intranasal instillations of IDX0150 (1,247 μg/μL, provided by InDex Pharmaceuticals AB, Stockholm, Sweden) on days 16 and 21 (prophylactic protocol), on days 30 and 33 (therapeutic protocol A) or on days 30 and 34 (therapeutic protocol B). The instillations in the therapeutic protocols (A & B) on days 30 and 33 were given 4 h after aerosol challenge. The second instillation in protocol B on day 34 was given 24 h after the last aerosol challenge. The drug was administered in 40 μL PBS giving a dose of ˜50 μg/mice (49.88 μg/mice). The two sensitized sham-treatment groups were instilled with PBS, the same total volume as for the treatment groups, according to either the prophylactic protocol (days 16 and 21) or to the therapeutic protocol A (days 30 and 33).
In a second experiment, since administration of IDX0150 in the first experiment using prophylactic protocol (FIG. 6) gave a significant reduction of airway inflammation (FIG. 7), three other substances were tested with the same protocol. The drug treatment consisted of intranasal instillations of IDX9025, IDX9038 and IDX9053 (Table 1) (1,247 μg/μL, provided by InDex Pharmaceuticals AB) on days 16 and 21 (see FIG. 6, prophylactic protocol). All substances were administered in 40 μL PBS giving a dose of ˜50 μg/mice (49.88 μg/mice). The two sensitized sham-treatment groups were instilled with PBS, the same total volume as for the treatment groups, according to the prophylactic protocol (days 16 and 21).
Mice were killed by cervical dislocation 42 h after the last OVA aerosol challenge. The trachea was cannulated with polyethylene tubing (Becton Dickinson, Sparks, Md., USA) and bronchoalveolar lavage (BAL) was performed using 4×1 mL aliquots of ice-cold Hank's balanced salt solution (HBSS) (Sigma, St Louis, Mo., USA). The BAL fluid was centrifuged (400 g, 10 min, 4° C.) and the BAL fluid cells were resuspended in 0.4 mL PBS. The total number of leukocytes counted using tryphan blue exclusion in a Barker chamber. Duplicate Cytospin (Cytospin 3, Shandon, Runcorn, UK) preparations of BAL fluid cells were stained with May Grünewald Giemsa for differential counts, using standard morphological criteria.
Statistical comparisons were performed using One-way analysis of variance (ANOVA) using Dunnett's post hoc correction to compare with sensitized PBS treated control mice (GraphPad Prism 3). Data are shown as mean±standard deviation. P<0.05 was considered significant.

G*G*A*ACAGTTCGTCCAT*G*G*C (phosphorothioate linkages, as printed in the source, key not given here) [IDX0150, oligonucleotide used as control; * = phosphorothioate modification]
AUC reduction (%) AA [1]: −89.4%
migration of eosinophils into the BAL fluid ([2]; prophylactic protocol, 50 μg/animal intranasal on day 16 and 21, P<0.001): significantly reduce
migration of leukocytes into the BAL fluid ([2]; prophylactic protocol, 50 μg/animal intranasal on day 16 and 21, P<0.05): significantly reduce
effect on BAL fluid cells, therapeutic arm ([2]; therapeutic protocols, 50 μg intranasal, days 30 and 33 (A) or 30 and 34 (B)): no statistically proven effects
